# Source: patent US20240407371A1, “METHOD FOR THE KILLING, INACTIVATING, OR INHIBITING OF HARMFUL BLUE-GREEN ALGAE OR ALGAE CAPABLE OF CAUSING HARMFUL ALGAL BLOOM (HAB)” (priority 2021, published 2024)
# System: Saprolegnia diclina
# Experiment: Atlantic salmon eggs challenged with Saprolegnia diclina trojan eggs, immersion baths
# Assay type: in vivo, Atlantic salmon (Salmo solar L.) eggs
# Conditions: 1665 ppm, 15 min bath daily
compound,measurement,setting,value
C=O [Formalin],signs of saprolegniosis,,did not suffer any sign of saprolegniosis
same,Average Number of Eggs Entangled,"Treatment E, 10 days",0.00
same,Average Percent Eggs Entangled,"Treatment E, 10 days",0.00
